Laboratory results published in the NIST ThermoML archive (doi:10.1021/je0201370).

Tests used:
[1] = 298.1 K; 101.33 kPa; Liquid; vibrating tube
[2] = excess molar enthalpy (molar enthalpy of mixing); xn = mol fraction of the nth substance listed; details: 101 kPa, Liquid

c1ccccc1 [benzene]
Details | mass density [kg/m3]
[1] | 873.45

CCCCCCO [hexan-1-ol]
Details | mass density [kg/m3]
[1] | 815.16

CCCCCCO [hexan-1-ol] + c1ccccc1
[2]
Details | excess molar enthalpy [kcal/mol]
298 K, x1 = 0.0619 | 0.155
298 K, x1 = 0.0988 | 0.197
298 K, x1 = 0.1383 | 0.231
298 K, x1 = 0.1909 | 0.258
298 K, x1 = 0.2287 | 0.273
298 K, x1 = 0.2675 | 0.283
298 K, x1 = 0.3137 | 0.289
298 K, x1 = 0.3792 | 0.291
298 K, x1 = 0.4153 | 0.284
298 K, x1 = 0.4625 | 0.271
298 K, x1 = 0.5107 | 0.261
298 K, x1 = 0.5648 | 0.242
298 K, x1 = 0.6192 | 0.217
298 K, x1 = 0.7214 | 0.163
298 K, x1 = 0.7711 | 0.139
298 K, x1 = 0.8482 | 0.0908
298 K, x1 = 0.8884 | 0.0691
298 K, x1 = 0.979 | 0.0136
308 K, x1 = 0.037 | 0.115
308 K, x1 = 0.0647 | 0.173
308 K, x1 = 0.1001 | 0.217
308 K, x1 = 0.1428 | 0.256
308 K, x1 = 0.1815 | 0.279
308 K, x1 = 0.2272 | 0.299
308 K, x1 = 0.2476 | 0.306
308 K, x1 = 0.3195 | 0.317
308 K, x1 = 0.3867 | 0.322
308 K, x1 = 0.463 | 0.313
308 K, x1 = 0.4675 | 0.31
308 K, x1 = 0.5017 | 0.303
308 K, x1 = 0.5463 | 0.288
308 K, x1 = 0.593 | 0.266
308 K, x1 = 0.6577 | 0.231
308 K, x1 = 0.7485 | 0.177
308 K, x1 = 0.8067 | 0.137
308 K, x1 = 0.8318 | 0.119
308 K, x1 = 0.8867 | 0.0796
308 K, x1 = 0.9323 | 0.0478

CCCOC(=O)CC [propyl propanoate]
Details | mass density [kg/m3]
[1] | 875.53

CCCOC(=O)CC [propyl propanoate] + CCCCCCO
[2], 308 K
Details | excess molar enthalpy [kcal/mol]
x1 = 0.0406 | 0.0552
x1 = 0.089 | 0.116
x1 = 0.1367 | 0.17
x1 = 0.1766 | 0.208
x1 = 0.247 | 0.269
x1 = 0.3217 | 0.315
x1 = 0.3805 | 0.34
x1 = 0.4198 | 0.355
x1 = 0.4667 | 0.361
x1 = 0.5259 | 0.367
x1 = 0.5961 | 0.362
x1 = 0.6484 | 0.349
x1 = 0.6999 | 0.327
x1 = 0.7542 | 0.299
x1 = 0.7995 | 0.263
x1 = 0.8595 | 0.205
x1 = 0.9109 | 0.143
x1 = 0.9496 | 0.0872
